This is an account of results in patent US6288082A, “Substituted 3-cyanoquinolines” (priority 1999, dated 2001).

Structures are written as SMILES. Counter-ions that a name gives are not always drawn.

Test [1] concerns the target T1, Kinase insert Domain containing Receptor (KDR) (Homo sapiens, UniProt P35968).
T1 construct: KDR; the Catalytic Domain of the VEGF Receptor
The test is described as follows: Inhibition of Kinase insert Domain containing Receptor (KDR; the catalytic domain of the VEGF receptor). The note with it: substrate E:Y 4:1, pH 7.2. The test is classed as biochemical.
From the text: Inhibition of Kinase Insert Domain Containing Receptor (KDR; the Catalytic Domain of the VEGF Receptor)
In this standard pharmacological test procedure, KDR protein is mixed, in the presence or absence of a inhibitor compound, with a substrate peptide to be phosphorylated (a copolymer of glutamic acid and tyrosine, E:Y: 4:1) and other cofactors such as Mg^++ and sodium vanadate (a protein tyrosine phosphatase inhibitor) in an appropriate buffer to maintain pH (7.2). ATP and a radioactive tracer (either P^32 -or P^33 -labeled ATP) is then add to initiate phosphorylation. After incubation, the radioactive phosphate associated with the acid-insoluble fraction of the assay mixture is then quantified as reflection of substrate phosphorylation.

Test [2] deals with T2, Epidermal Growth Factor Receptor Kinase (EGF-R) (Homo sapiens, UniProt P00533).
T2 construct: EGFR cDNA encoding amino acids 645-1186 preceded by Met-Ala-(His)6; Met-Ala-(His)6 (N); made in house; host or cells: Sf9 insect cells, recombinant baculovirus vHcEGFR52
T2 sequence (P00533 669-1210): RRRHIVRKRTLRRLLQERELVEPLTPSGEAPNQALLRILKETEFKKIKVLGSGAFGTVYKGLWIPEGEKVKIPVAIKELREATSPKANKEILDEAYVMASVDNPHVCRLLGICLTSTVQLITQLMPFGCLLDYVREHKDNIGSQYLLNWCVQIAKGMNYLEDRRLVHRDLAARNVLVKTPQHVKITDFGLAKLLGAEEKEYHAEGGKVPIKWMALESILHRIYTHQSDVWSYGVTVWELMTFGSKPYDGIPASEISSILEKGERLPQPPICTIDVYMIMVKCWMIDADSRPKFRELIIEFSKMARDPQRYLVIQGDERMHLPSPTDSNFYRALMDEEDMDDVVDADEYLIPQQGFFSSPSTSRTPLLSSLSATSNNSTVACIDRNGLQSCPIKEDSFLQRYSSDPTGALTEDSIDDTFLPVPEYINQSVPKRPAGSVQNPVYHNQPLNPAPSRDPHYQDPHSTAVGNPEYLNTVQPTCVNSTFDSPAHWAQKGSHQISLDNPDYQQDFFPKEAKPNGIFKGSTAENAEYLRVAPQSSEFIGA
The test is described as follows: Inhibition of Epidermal Growth Factor Receptor Kinase (EGF-R) Using Recombinant Enzyme. The class given is biochemical. The following applies: for IC50: recombinant enzyme, RR-SRC peptide substrate. The method, then:
Inhibition of Epidermal Growth Factor Receptor Kinase (EGF-R) Using Recombinant Enzyme
Representative test compounds were evaluated for their ability to inhibit the phosphorylation of the tyrosine residue of a peptide substrate catalyzed by the enzyme epidermal growth factor receptor kinase. The peptide substrate (RR-SRC) has the sequence arg-arg-leu-ile-glu-asp-ala-glu-tyr-ala-ala-arg-gly. The enzyme used in this test procedure is the His-tagged cytoplasmic domain of EGFR. A recombinant baculovirus (vHcEGFR52) was constructed containing the EGFR cDNA encoding amino acids 645-1186 preceded by Met-Ala-(His)6. Sf9 cells in 100 mm plates were infected at an moi of 10 pfu/cell and cells were harvested 48 h post infection. A cytoplasmic extract was prepared using 1% Triton X-100 and applied to Ni-NTA column. After washing the column with 20 mM imidazole, HcEGFR was eluted with 250 mM imidazole (in 50 mM Na2 HPO4, pH 8.0, 300 mM NaCl). Fractions collected were dialyzed against 10 mM HEPES, pH 7.0, 50 mM NaCl, 10% glycerol, 1 ug/mL antipain and leupeptin and 0.1 mM Pefabloc SC. The protein was frozen in dry ice/methanol and stored -70° C.
Test compounds were made into 10 mg/mL stock solutions in 100% dimethylsulfoxide (DMSO). Prior to experiment, stock solutions were diluted to 500 uM with 100% DMSO and then serially diluted to the desired concentration with HEPES buffer (30 mM HEPES pH 7.4).
For the enzyme reaction, 10 uL of each inhibitor (at various concentrations) were added to each well of a 96-well plate. To this was added 3 uL of enzyme (1:10 dilution in 10 mM HEPES, pH 7.4 for final conc. of 1:120). This was allowed to sit for 10 min on ice and was followed by the addition of 5 ul peptide (80 uM final conc.), 10 ul of 4×Buffer (Table A), 0.25 uL ^33 P-ATP and 12 uL H2 O. The reaction was allowed to run for 90 min at room temperature and was followed by spotting the entire volume on to precut P81 filter papers. The filter discs were washed 2× with 0.5% phosphoric acid and radioactivity was measured using a liquid scintillation counter. […]
The inhibition data for representative compounds of the invention are shown below in TABLE 1. […] The % inhibition of the test compound was determined for at least three different concentrations and the IC50 value was evaluated from the dose response curve. The % inhibition was evaluated with the following formula: […]
where CPM(drug) is in units of counts per minute and is a number expressing the amount of radiolabled ATP (γ-^33 P) incorporated onto the RR-SRC peptide substrate by the enzyme after 90 minutes at room temperature in the presence of test compound as measured by liquid scintillation counting. CPM(control) is in units of counts per minute and was a number expressing the amount of radiolabled ATP (γ-^33 P) incorporated into the RR-SRC peptide substrate by the enzyme after 90 minutes at room temperature in the absence of test compound as measured by liquid scintillation counting. The CPM values were corrected for the background counts produced by ATP in the absence of the enzymatic reaction.

In test [3] the target is Epithelial Cell Kinase (ECK) (Homo sapiens, UniProt P29317). The test is described as follows: Inhibition of Epithelial Cell Kinase (ECK). The class given is biochemical. The following applies: biotinylated peptide substrate, pH 7.2.
Chain of Epithelial Cell Kinase (ECK) (P29317 24-976): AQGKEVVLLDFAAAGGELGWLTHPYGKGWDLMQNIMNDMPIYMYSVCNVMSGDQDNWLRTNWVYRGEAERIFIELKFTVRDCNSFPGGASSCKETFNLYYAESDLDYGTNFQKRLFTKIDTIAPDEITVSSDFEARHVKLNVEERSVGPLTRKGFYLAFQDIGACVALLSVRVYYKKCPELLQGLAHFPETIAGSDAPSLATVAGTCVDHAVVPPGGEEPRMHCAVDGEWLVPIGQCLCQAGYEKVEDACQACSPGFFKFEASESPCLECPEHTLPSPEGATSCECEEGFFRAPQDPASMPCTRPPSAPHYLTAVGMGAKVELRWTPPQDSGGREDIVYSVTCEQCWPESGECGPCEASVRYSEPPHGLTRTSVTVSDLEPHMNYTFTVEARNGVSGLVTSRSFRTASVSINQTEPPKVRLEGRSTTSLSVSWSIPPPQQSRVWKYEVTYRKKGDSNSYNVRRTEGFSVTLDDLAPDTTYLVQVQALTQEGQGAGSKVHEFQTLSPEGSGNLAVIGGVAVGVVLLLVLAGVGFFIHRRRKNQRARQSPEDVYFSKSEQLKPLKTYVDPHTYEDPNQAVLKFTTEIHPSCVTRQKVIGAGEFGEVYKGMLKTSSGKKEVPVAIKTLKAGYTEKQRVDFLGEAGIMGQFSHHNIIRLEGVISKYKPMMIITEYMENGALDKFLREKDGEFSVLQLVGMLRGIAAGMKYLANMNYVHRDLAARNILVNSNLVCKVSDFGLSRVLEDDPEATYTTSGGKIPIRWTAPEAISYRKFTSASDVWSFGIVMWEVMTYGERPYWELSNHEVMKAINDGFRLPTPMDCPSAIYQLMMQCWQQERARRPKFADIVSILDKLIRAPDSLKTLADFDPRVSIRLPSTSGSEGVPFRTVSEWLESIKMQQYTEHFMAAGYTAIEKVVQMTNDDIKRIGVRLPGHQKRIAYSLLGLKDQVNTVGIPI
Method: In this standard pharmacological test procedure, a biotinylated peptide substrate is first immobilized on neutravidin-coated microtiter plates. The test drug, the Epithelial Cell Kinase (ECK), Mg^++, sodium vanadate (a protein tyrosine phosphatase inhibitor), and an appropriate buffer to maintain pH (7.2) are then added to the immobilized substrate-containing microtiter wells. ATP is then added to initiate phosphorylation. After incubation, the assay plates are washed with a suitable buffer leaving behind phosphorylated peptide which is exposed to horse radish peroxidase (HRP)-conjugated anti-phosphotyrosine monoclonal antibody. The antibody-treated plates are washed again and the HRP activity in individual wells is quantified as a reflection of degree of substrate phosphorylation.
In test [4] the target is Mitogen Activated Protein Kinase (Mek-Erk). The experiment in a line: Mitogen Activated Protein Kinase (MAPK) assay, coupled Mek-Erk. The class given is biochemical, human. The following applies: MBP or Myc peptide substrate, pH 7.4. The method, then: Mitogen Activated Protein Kinase (MAPK) Assay
To evaluate inhibitors of the MAP (mitogen activated protein) kinase a two component coupled standard pharmacological test procedure, which measures phosphorylation of a serine/threonine residue in an appropriate sequence in the substrate in the presence and absence of a putative inhibitor, was used. Recombinant human MEK 1 (MAPKK) was first used to activate recombinant human ERK2 (MAPK) and the activated MAPK (ERK) was incubated with substrate (MBP peptide or MYC peptide) in the presence of ATP, Mg^+2 and radiolabeled ^33 P ATP. The phosphorylated peptide was captured on a P 81 phosphocellulose filter (paper filter or embedded in microtiter plate) washed and counted by scintillation methods.
The peptide substrates used in the assay are MBP, peptide substrate ([…]), or synthetic Myc substrate, ([…]·5 TFA. The recombinant enzymes used were prepared as GST fusion proteins of human ERK 2 and human MEK 1. Inhibitor samples were prepared as 10×stocks in 10% DMSO and an appropriate aliquot was used to deliver either 10 ug/ml for a single point screening dose or 100, 10, 1, and 0.1 uM final concentration for a dose response curve. Final DMSO concentrations were less than or equal to 1%.
The reaction was run as follows in 50 mM Tris kinase buffer, pH 7.4 in a reaction volume of 50 ul. The appropriate volume of kinase buffer and inhibitor sample was added to the tube. Appropriate dilution of enzyme was delivered to give 2-5 ug recombinant MAPK (Erk ) per tube. The inhibitor was incubated with MAPK (Erk) for 30 min at 0 deg. C. Recombinant Mek (MAPKK) (0.5-2.5 ug) or fully activated Mek (0.05-0.1 units) was added to activate the Erk and incubated for 30 min at 30° C. Then substrate and gamma ^33 P ATP was were added to give a final concentration of 0.5-1 mM MBPP or 250-500 uM Myc; 0.2-0.5 uCi gamma P 33 ATP/tube; 50 μM ATP final concentration. Samples were incubated at 30° C. for 30 minutes and the reaction was stopped by adding 25 μl of ice cold 10% TCA. After samples were chilled on ice for 30 min, 20 μl of sample was transferred onto P 81 phosphocellulose filter paper or appropriate MTP with embedded P 81 filter. Filter papers or MTP were washed 2 times with a large volume of 1% acetic acid, then 2 times with water. The filters or MTP were briefly air dried before addition of scintillant and samples were counted in the appropriate scintillation counter set up for reading ^33 P isotope. Samples included a positive control (activated enzyme plus substrate); a no enzyme control; a no substrate control; samples with different concentrations of putative inhibitor; and samples with reference inhibitors (other active compounds or non-specific inhibitors such as staurosporine or K252 B).
The raw data was captured as cpm. Sample replicates were averaged and corrected for background count. Mean cpm data was tabulated by group and % inhibition by a test compound was calculated as (corrected cpm control-corrected. cpm sample/control)×100=% inhibition. […] The results obtained for representative compounds of this invention are listed in TABLE 2 where there may be separate entries for the same compound; this is an indication that the compound was evaluated more than one time.

T1 sequence (P35968 834-1162 limits assumed): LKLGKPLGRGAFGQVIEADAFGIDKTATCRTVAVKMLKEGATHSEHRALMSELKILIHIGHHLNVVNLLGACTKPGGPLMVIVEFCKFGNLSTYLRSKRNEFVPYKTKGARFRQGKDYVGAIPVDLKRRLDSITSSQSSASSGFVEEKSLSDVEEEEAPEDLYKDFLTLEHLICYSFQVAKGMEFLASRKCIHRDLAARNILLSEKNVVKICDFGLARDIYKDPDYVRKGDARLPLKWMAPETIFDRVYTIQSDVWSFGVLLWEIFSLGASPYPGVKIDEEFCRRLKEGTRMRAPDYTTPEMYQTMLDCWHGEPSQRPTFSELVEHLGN

Molecule `CCOc1cc2ncc(C#N)c(Nc3ccc4c(c3)OCO4)c2cc1OCC` [Example 98, 4-(Benzo[1,3]dioxol-5-ylamino)-6,7-diethoxy-quinoline-3-carbonitrile] returned an IC50 in test [1] of 2.65 µM.

Consider `CCOc1cc2ncc(C#N)c(Nc3ccc4c(c3)NCC4)c2cc1OCC` [Example 96, 4-(2,3-Dihydro-1H-indol-6-ylamino)-6,7-diethoxy-quinoline-3-carbonitrile], for which the inhibition at 0.5 µM in test [2] (read-out: % Inh @ 0.5 μM) came out at 6%. The IC50 in test [2] is over 10 µM; in test [3] it was over 53.5 µM; in test [1], 8.02 µM.

Consider `CCOc1cc2ncc(C#N)c(Nc3ccc4c(c3)C(=O)NCC(=O)N4C)c2cc1OCC` [Example 127, 6,7-Diethoxy-4-(1-methyl-2,5-dioxo-2,3,4,5-tetrahydro-1H-benzo[e][1,4]diazepin-7-ylamino)-quinoline-3-carbonitrile], for which the IC50 is over 100 µM in test [4] and over 1 µM in test [2].

In the case of `CCOc1cc2ncc(C#N)c(Nc3ccc4c(c3)C(=O)OC4)c2cc1OCC` [Example 111, 6,7-Diethoxy-4-(3-oxo-1,3-dihydro-isobenzofuran-5-ylamino)-quinoline-3-carbonitrile], the IC50 was over 100 µM in test [4] and over 1 µM in test [2].

Turning to `CCOc1cc2ncc(C#N)c(Nc3ccc4[nH]c(=O)oc(=O)c4c3)c2cc1OCC` [Example 109, 4-(2,4-Dioxo-1,4-dihydro-2H-benzo[d][1,3]oxazin-6-ylamino)-6,7-diethoxy-quinoline-3-carbonitrile], the IC50 in test [4] was over 100 µM.

`COc1ccc(OC)c2c(Nc3ccc4cn[nH]c4c3)c(C#N)cnc12` [Example 138, 4-(1H-Indazol-6-ylamino)-5,8-dimethoxy-quinoline-3-carbonitrile]: in test [4], the IC50 is over 100 µM.

`COc1cc2ncc(C#N)c(Nc3ccc4[nH]c(C)nc4c3)c2cc1OC` [Example 152, 6,7-Dimethoxy-4-(2-methyl-1H-benzoimidazol-5-ylamino)-quinoline-3-carbonitrile]: the IC50 in test [4] is over 100 µM.

Turning to `COc1cc2ncc(C#N)c(Nc3cccc4cccnc34)c2cc1OC` [Example 134, 6,7-Dimethoxy-4-(quinolin-8-ylamino)-quinoline-3-carbonitrile], in test [4], the IC50 is over 100 µM.

In test [4], `COc1cc2ncc(C#N)c(Nc3ccc4cn[nH]c4c3)c2cc1OCCCN1CCOCC1` [Example 139, 4-(1H-Indazol-6-ylamino)-7-methoxy-6-(3-morpholine-4-yl-propoxy)-quinoline-3-carbonitrile hydrochloride] yielded an IC50 of 15 µM.

On to `COc1cc2ncc(C#N)c(Nc3ccc4[nH]c(=O)sc4c3)c2cc1OC` [Example 131, 6,7-Dimethoxy-4-(2-oxo-2,3-dihydro-benzothiazol-6-ylamino)-quinoline-3-carbonitrile], for which, in test [4], the IC50 was over 100 µM.

With `COc1cc2c(Nc3ccc4cn[nH]c4c3)c(C#N)cnc2cc1OCCN(C)C` [Example 167, 7-(2-Dimethylaminoethoxy)-4-(1H-indazol-6-ylamino)-6-methoxyquinoline-3-carbonitrile], the IC50 in test [4] was 8 µM.

Turning to `COc1cccc2c(Nc3ccc4nn[nH]c4c3)c(C#N)cnc12` [Example 149, 4-(3H-benzotriazol-5-ylamino)-8-methoxy-quinoline-3-carbonitrile], the IC50 in test [4] was over 100 µM.

For the molecule `COc1ccc2c(Nc3ccc4cn[nH]c4c3)c(C#N)cnc2c1` [Example 143, 4-(1H-Indazol-6-ylamino)-7-methoxy-quinoline-3-carbonitrile], in test [4], the concentration for half-maximal inhibition (IC50) is 6 µM.

In test [4], `COc1cccc2c(Nc3ccc4cn[nH]c4c3)c(C#N)cnc12` [Example 148, 4-(1H-Indazol-6-ylamino)-8-methoxy-quinoline-3-carbonitrile] registered an IC50 of over 100 µM.

Regarding `CCOc1cc2ncc(C#N)c(Nc3ccc4cn[nH]c4c3)c2cc1OC` [Example 115, 7-Ethoxy-4-(indazol-6-ylamino)-6-methoxy-quinoline-3-carbonitrile], the IC50 in test [4] is 25 µM; in test [2] it was over 0.5 µM.

Take `COc1ccc2c(Nc3ccc4[nH]ccc4c3)c(C#N)cnc2c1` [Example 146, 4-(1H-Indol-5-ylamino)-7-methoxy-quinoline-3-carbonitrile]: the IC50 in test [4] came out at 3 µM.

In test [4], `N#Cc1cnc2cc3c(cc2c1Nc1ccc2cn[nH]c2c1)OCCO3` [Example 125, 9-(1H-Indazol-6-ylamino)-2,3-dihydro[1,4]dioxino[2,3-g]quinoline-8-carbonitrile] returned an IC50 of 35 µM.

In test [4], `COc1cc2ncc(C#N)c(Nc3ccc(O)c4ncccc34)c2cc1OC` [Example 135, 4-(8-Hydroxy-quinolin-5-ylamino)-6,7-dimethoxy-quinoline-3-carbonitrile] yielded an IC50 of over 100 µM.

On to `CCOc1cc2ncc(C#N)c(Nc3ccc4cc[nH]c4c3)c2cc1OCC` [Example 101, 6,7-Diethoxy-4-(1H-indol-6-ylamino)-quinoline-3-carbonitrile], for which, in test [2], the IC50 was over 1 µM.
